Laboratory results from patent US20250352525A1, “COMPOSITIONS AND METHODS OF TREATING TRAUMATIC BRAIN INJURY” (United States Government As Represented By The Department …, priority 2024, published 2025).

Tests used:
mmSTING = biological target: T1, mmSTING (Mus musculus, UniProt Q3TBT3); details: covalent small-molecule inhibitor; cited from earlier work
T1 sequence (Q3TBT3 1-378): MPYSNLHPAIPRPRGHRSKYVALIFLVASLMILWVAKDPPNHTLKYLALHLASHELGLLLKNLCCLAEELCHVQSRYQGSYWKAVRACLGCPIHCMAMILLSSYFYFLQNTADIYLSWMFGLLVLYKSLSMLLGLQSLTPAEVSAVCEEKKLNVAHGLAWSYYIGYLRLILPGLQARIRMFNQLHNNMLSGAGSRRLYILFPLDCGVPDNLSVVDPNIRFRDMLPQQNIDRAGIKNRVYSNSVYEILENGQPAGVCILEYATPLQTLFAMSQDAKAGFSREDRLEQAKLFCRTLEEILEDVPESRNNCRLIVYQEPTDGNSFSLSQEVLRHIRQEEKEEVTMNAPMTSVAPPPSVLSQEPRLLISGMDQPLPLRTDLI

hsSTING = hsSTING (Homo sapiens, UniProt Q86WV6); details: covalent small-molecule inhibitor; cited from earlier work
Chain of hsSTING (Q86WV6 whole entry H232R): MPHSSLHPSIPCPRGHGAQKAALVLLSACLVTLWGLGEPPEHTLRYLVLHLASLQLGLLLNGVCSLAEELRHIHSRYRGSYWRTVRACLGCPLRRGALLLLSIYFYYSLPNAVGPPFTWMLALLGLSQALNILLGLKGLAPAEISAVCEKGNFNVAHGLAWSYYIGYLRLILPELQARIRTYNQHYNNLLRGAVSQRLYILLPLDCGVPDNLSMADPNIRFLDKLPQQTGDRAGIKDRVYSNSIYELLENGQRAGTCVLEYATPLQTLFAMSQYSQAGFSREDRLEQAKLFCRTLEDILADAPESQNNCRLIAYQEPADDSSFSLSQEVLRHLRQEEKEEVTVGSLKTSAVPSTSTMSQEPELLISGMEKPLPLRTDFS

IBA1 [1] = test: Immunocytochemistry of IBA1 in poly (I:C)-stimulated BV2 microglial cells, integrated density (ImageJ); format: cell-based; details: pre-treated 2 h, then poly (I:C) 6 h, normalized to blank
Description: (§1) Experimental design: IMG or BV2 cells were plated in a 96-well or 6-well plate and allowed to adhere overnight. Plates were dosed with clonixeril for 2 hours and then LPS or polyinosinic-polycytidylic acid (polyIC) for 24 hours to induce inflammation. Ionized calcium-binding adaptor molecule 1 (IBA1) and pSTING expression were imaged and immunohistochemistry was measured (ImageJ).
Controls used are a blank (untreated); and 25 ng/ml poly (I:C) treatment for 6 h. Immunocytochemistry of BV2 cells pre-treated with a known STING inhibitor H151, clonixeril or a ketone analogue of clonixin (e.g., clonixin butyl ketone) for 2 h and then treated with poly (I:C) for 6 h, stained with IBA1 antibody (red) and DAPI (blue) to visualize nuclei. […] Separate channels were quantified by ImageJ for IBA1 (red) and DAPI (blue) pixel density. A ratio of red signal to blue signal was calculated for each image. Ratios were averaged for each experimental group and normalized to the blank (control) group.

IL-6 = test: qPCR for IL-6 in PolyIC-stimulated BV2 cells; format: cell-based; details: dosed 2 hours, then PolyIC 24 hours
Description: (§2) Experimental design: BV2 cells were plated in a 6-well plate and allowed to adhere overnight. Plates were dosed with clonixin butyl ketone or H151 for 2 hours and then PolyIC for 24 hours to induce inflammation. qPCR was performed to measure expression of CCL20 and IL-6 inflammatory genes and immunomodulatory Irf-3 gene.

CCL20 = test: qPCR for CCL20 in PolyIC-stimulated BV2 cells; format: cell-based; details: dosed 2 hours, then PolyIC 24 hours
Description: as §2

pSTING [2] = test: Immunocytochemistry of pSTING in poly (I:C)-stimulated HT22 hippocampal cells, integrated density (ImageJ); format: cell-based, mouse; details: pre-treated 2 h, then poly (I:C) 6 h, normalized to blank
Description: Cells were untreated, or pre-treated with vehicle or STING-inhibitory compounds H151, a ketone analog of clonixin (e.g., clonixin butyl ketone), clonixeril (CXL) for 2 h and then treated with poly (I:C) for 6 h. Cells were then stained with DAPI (blue, top row) to visualize nuclei and pSTING antibody (red, bottom 5 row). Images are presented separately for enhanced clarity. Scale bar 100 μm.
Error bars represent mean ±standard deviation (SD). Separate channels were quantified by ImageJ for pSTING (red) and DAPI (blue) pixel density. A ratio of red signal to blue signal was calculated for each image. Ratios were averaged for each experimental group and normalized to the blank (control) group.

Irf-3 = test: qPCR for Irf-3 in PolyIC-stimulated BV2 cells; format: cell-based; details: dosed 2 hours, then PolyIC 24 hours
Description: as §2

[3] = tested on: phosphorylated STING (pSTING); test: Western blot for pSTING in poly (I:C)-stimulated HT22 hippocampal cells; format: cell-based, mouse; details: 100 pM pre-treatment 2 h, then poly (I:C) 6 h
Description: Immunoblot analysis of phosphorylated STING (pSTING) and β-actin in HT22 mouse hippocampal cells. Cells were pre-treated with 100 pM ketone analog of clonixin (e.g., clonixin butyl ketone) for 2 h, followed by 6 h stimulation with poly (I:C). Cell lysates were harvested at indicated time points using RIPA buffer supplemented with 1× Halt Protease and Phosphatase Inhibitor Cocktail, quantified via Bradford assay, and normalized to 20 μg protein per well. Lysates were resolved by SDS-PAGE and probed with rabbit polyclonal anti-pSTING and anti-β-actin antibodies.

IBA1 [4] = test: Immunocytochemistry of IBA1 in LPS-stimulated IMG cells, integrated density (ImageJ); format: cell-based; details: pre-treated 2 h, then LPS 24 h, normalized to blank
Description: as §1
(§3) Cells were untreated, or pre-treated with vehicle or STING-inhibitory compound clonixeril for 2 h and then treated with LPS for 24 h. Cells were then stained with DAPI (blue) to visualize nuclei, IBA1 or pSTING antibody (red). Images are presented separately for enhanced clarity. […] Error bars represent mean ±standard deviation (SD). Separate channels were quantified by ImageJ for IBA1 or pSTING (red) and DAPI (blue) pixel density. A ratio of red signal to blue signal was calculated for each image. Ratios were averaged for each experimental group and normalized to the blank (control) group.

pSTING [5] = test: Immunocytochemistry of pSTING in LPS-stimulated IMG cells, integrated density (ImageJ); format: cell-based; details: pre-treated 2 h, then LPS 24 h, normalized to blank
Description: as §1, §3

Molecule: CCCCCCc1ccc(NC(=O)c2ccc([N+](=O)[O-])o2)cc1 [C-171, N-(4-hexylphenyl)-5-nitro-2-furancarboxamide]
- inhibition of mmSTING (mmSTING): efficiently inhibits
- inhibition of hsSTING (hsSTING): efficiently inhibits

Molecule: CCc1ccc(NC(=O)Nc2c[nH]c3ccccc23)cc1 [H151]
- IBA1 integrated density (IBA1 [1]): reduction
- expression of IL-6 (qPCR) (IL-6): significantly decreased
- CCL20 expression at 1 picomolar concentration (CCL20): but not H151 showed a significant reduction
- expression of CCL20 (qPCR) (CCL20): significantly decreased
- pSTING (immunocytochemistry, integrated density) (pSTING [2]): reduction
- expression of interferon regulatory gene Irf3 (qPCR) (Irf-3): reduced significantly

Molecule: CCCCC(=O)c1cccnc1Nc1cccc(Cl)c1C [clonixin butyl ketone, {2-[(3-chloro-2-methylphenyl)amino]pyridin-3-yl}-1-pentanone]
- poly (I:C)-induced STING phosphorylation (Western blot, normalized to β-actin) [3]: inhibition
- IBA1 integrated density (IBA1 [1]): reduction
- IL-6 expression at 1 picomolar concentration (IL-6; 1 picomolar): significant reduction
- expression of IL-6 (qPCR) (IL-6): significantly decreased
- CCL20 expression at 1 picomolar concentration (CCL20): significant reduction
- expression of CCL20 (qPCR) (CCL20): significantly decreased
- pSTING (immunocytochemistry, integrated density) (pSTING [2]): reduction
- expression of interferon regulatory gene Irf3 (qPCR) (Irf-3): reduced significantly

Molecule: clonixeril
- IBA1 integrated density (IBA1 [1]): reduction
- IBA1 integrated density (IBA1 [4]): reduction
- pSTING integrated density (pSTING [5]): reduction
- pSTING (immunocytochemistry, integrated density) (pSTING [2]): reduction
